How the values were obtained:
Scirpus juncoides [1] = test: Test Example 2: herbicidal effect test by treatment during growing period in paddy field; type: in vivo; details: treatment 7 days after sowing, 120 g/10a, evaluated 14 days after treatment
Summary of the method: (§1)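 Paddy soil in Wagner pots, flooded to ~3 cm; 30 seeds per species sown 0–1 cm deep, greenhouse-grown. Emulsifiable concentrate diluted in water and dripped into flood water 7 days after sowing at 120 g active ingredient per 10 are. Dry-weight suppression vs untreated assessed 14 days post-treatment, two replicates.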

Lindernia pyxidaria [2] = test: as above; type: in vivo; details: treatment 7 days after sowing, 120 g/10a, evaluated 14 days after treatment
Summary of the method: as §1

Monochoria vaginalis [3] = test: as above; type: in vivo; details: treatment 7 days after sowing, 120 g/10a, evaluated 14 days after treatment
Summary of the method: as §1

Echinochloa crus-galli [4] = test: as above; type: in vivo; details: treatment 7 days after sowing, 120 g/10a, evaluated 14 days after treatment
Summary of the method: as §1

Scirpus juncoides [5] = test: Test Example 1: herbicidal effect test by soil treatment in paddy field; type: in vivo; details: 120 g/10a, paddy soil treatment just after sowing, 14 days after treatment
Summary of the method: (§2)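 In a greenhouse, puddled paddy soil in Wagner pots held ~3 cm flooding over freshly sown seeds. Treatment was dropwise application of the diluted formulation, 120 g a.i. per 10 are, with two replications; suppression was scored from dry weights after 14 days.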

Lindernia pyxidaria [6] = test: as above; type: in vivo; details: 120 g/10a, paddy soil treatment just after sowing, 14 days after treatment
Summary of the method: as §2

Monochoria vaginalis [7] = test: as above; type: in vivo; details: 120 g/10a, paddy soil treatment just after sowing, 14 days after treatment
Summary of the method: as §2

Echinochloa crus-galli [8] = test: as above; type: in vivo; details: 120 g/10a, paddy soil treatment just after sowing, 14 days after treatment
Summary of the method: as §2

Chenopodium album [9] = test: Test Example 4: herbicidal effect test by foliage treatment in upland field; type: in vivo; details: upland field foliage treatment 7 days after sowing; 120 g/10a; evaluated 14 days after treatment
Summary of the method: (§3)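 In this upland pot test, each species is sown at 20 seeds per pot. Spraying follows one week later at a dose of 120 g active ingredient per 10 are. Weed suppression, calculated from average dry weights, is determined 14 days afterward.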

Amaranthus viridis [10] = test: as above; type: in vivo; details: upland field foliage treatment 7 days after sowing; 120 g/10a; evaluated 14 days after treatment
Summary of the method: as §3

Echinochloa crus-galli [11] = test: as above; type: in vivo; details: upland field foliage treatment 7 days after sowing; 120 g/10a; evaluated 14 days after treatment
Summary of the method: as §3

crabgrass [12] = test: as above; type: in vivo; details: upland field foliage treatment 7 days after sowing; 120 g/10a; evaluated 14 days after treatment
Summary of the method: as §3

Chenopodium album [13] = test: Test Example 3: herbicidal effect test by soil treatment in upland field; type: in vivo; details: upland field soil treatment 1 day after sowing; 120 g/10a; evaluated 14 days after treatment
Summary of the method: (§4)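 Pre-emergence soil treatment: 20 seeds of each weed were mixed into the top 1 cm of alluvial field soil in 36 cm^2 pots. One day after sowing, a water-diluted emulsifiable concentrate was sprayed on the soil at 100 liter per 10 are (120 g active ingredient per 10 are), with two replications. Suppression (%) was derived from dry weight versus untreated plots after 14 days.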

Amaranthus viridis [14] = test: as above; type: in vivo; details: upland field soil treatment 1 day after sowing; 120 g/10a; evaluated 14 days after treatment
Summary of the method: as §4

Echinochloa crus-galli [15] = test: as above; type: in vivo; details: upland field soil treatment 1 day after sowing; 120 g/10a; evaluated 14 days after treatment
Summary of the method: as §4

crabgrass [16] = test: as above; type: in vivo; details: upland field soil treatment 1 day after sowing; 120 g/10a; evaluated 14 days after treatment
Summary of the method: as §4

| SMILES | melting point [°C] | weed suppression rate, Scirpus juncoides (Scirpus juncoides [1]) [%] | weed suppression rate, Lindemia pyxidaria (Lindernia pyxidaria [2]) [%] | weed suppression rate, Monochoria vaginalis (Monochoria vaginalis [3]) [%] | weed suppression rate, Echinochloa crus-galli (Echinochloa crus-galli [4]) [%] | weed suppression rate, Scirpus juncoides (Scirpus juncoides [5]) [%] | weed suppression rate, Lindemia pyxidaria (Lindernia pyxidaria [6]) [%] | weed suppression rate, Monochoria vaginalis (Monochoria vaginalis [7]) [%] | weed suppression rate, Echinochloa crus-galli (Echinochloa crus-galli [8]) [%] | herbicidal effect (weed suppression rate), Chenopodium album (Chenopodium album [9]) [%] | herbicidal effect (weed suppression rate), Amaranthus viridis (Amaranthus viridis [10]) [%] | herbicidal effect (weed suppression rate), Echinochloa crus-galli (Echinochloa crus-galli [11]) [%] | herbicidal effect (weed suppression rate), Crabgrass (crabgrass [12]) [%] | herbicidal effect (weed suppression rate), Chenopodium album (Chenopodium album [13]) [%] | herbicidal effect (weed suppression rate), Amaranthus viridis (Amaranthus viridis [14]) [%] | herbicidal effect (weed suppression rate), Echinochloa crus-galli (Echinochloa crus-galli [15]) [%] | herbicidal effect (weed suppression rate), Crabgrass (crabgrass [16]) [%] |
| --- | --- | --- | --- | --- | --- | --- | --- | --- | --- | --- | --- | --- | --- | --- | --- | --- | --- |
| CCN(CC)C(=O)n1ncn(S(C)(=O)=O)c1=O [Compound 1-1] | 81.7 to 85.3 |  |  |  |  |  |  |  |  |  |  |  |  |  |  |  |  |
| CCN(CC)C(=O)n1ncn(S(=O)(=O)Cc2ccccc2)c1=O [Compound 1-968] | 115.8 to 118.6 |  |  |  |  |  |  |  |  |  |  |  |  |  |  |  |  |
| CC(C)N(C(=O)n1ncn(S(=O)(=O)C(C)C)c1=O)c1ccccc1 [Compound 1-54] | 92 to 94 | 90 | 80 | 80 | 90 | 90 | 80 | 80 | 90 | 80 | 90 | 80 | 90 |  |  |  |  |
| CC(C)N(C(=O)n1ncn(S(=O)(=O)C2CC2)c1=O)c1ccccc1 [Compound 1-168] | 102 to 104 | 90 | 80 | 80 | 90 | 90 | 80 | 80 | 90 |  |  |  |  |  |  |  |  |
| CC(C)N(C(=O)n1ncn(S(=O)(=O)C(C)C)c1=O)c1cccnc1F [Compound 1-90] |  | 90 | 90 | 90 | 100 | 90 | 90 | 80 | 100 | 70 | 50 | 90 | 90 | 90 | 90 | 100 | 100 |
| CC(C)N(C(=O)n1ncn(S(=O)(=O)C2CC2)c1=O)c1ccc(F)cc1F [Compound 1-150, 4-cyclopropylsulfonyl-N-(2,4-difluorophenyl)-N-isopropyl-5-oxo-1,2,4-triazole-1-carboxamide] | 144 to 146 | 90 | 90 | 90 | 100 | 100 | 100 | 100 | 100 | 80 | 90 | 80 | 90 | 100 | 90 | 100 | 100 |
